These results are taken from ChEMBL document CHEMBL1201862, “PubChem BioAssay data set” (2004).

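Five concentrations, 48 hours, 96-well plates. GI50 is the concentration that inhibits growth by half.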 Calls of active or inactive are those of the source. Rule as the data show it: active = GI50 up to about 1.1 µM and inactive = higher.

Among the test systems are HT-29; PC-3; A549; SNB-19; HOP-62; NCI-H460; UACC-257; SF-539; Malme-3M; SN12C; A498; OVCAR-8; MOLT-4; IGROV-1; NCI-H226; MDA-MB-435; U-251; HCT-15; TK-10; UO-31.
What all share (test): NCI tumour cell line growth inhibition, 48 h

In the case of `COc1ccc2c(c1)CCc1cc(C(N)=O)c3nnnn3c1-2`, the GI50 in the assay with HT-29 was > 100 µM (inactive); in the assay on PC-3 it was > 57.9 µM (inactive); with A549 it was > 100 µM (inactive); in the assay with SNB-19, 64.7 µM (inactive); in the assay with HOP-62 it was 25.5 µM (inactive); in the assay on NCI-H460, 12.2 µM (inactive). The GI50 is 85.5 µM (inactive) in the assay with UACC-257; 78.7 µM (inactive) in the assay with SF-539; 18.2 µM (inactive) in the assay on Malme-3M; 99.8 µM (inactive) with SN12C; 18.2 µM (inactive) with A498; > 52.7 µM (inactive) in the assay with OVCAR-8. In addition, the GI50 with MOLT-4 is > 38.8 µM (inactive); in the assay on IGROV-1, 39.3 µM (inactive); in the assay with NCI-H226 it was > 100 µM (inactive); with MDA-MB-435, > 100 µM (inactive); in the assay with U-251 it was 23.6 µM (inactive); in the assay with HCT-15, > 100 µM. Also, the GI50 in the assay with TK-10 is 8.13 µM (inactive).
`O=c1cc(N2CCCC2)[nH]c(=O)n1-c1ccc(F)cc1`: the GI50 in the assay with HT-29, with PC-3, with A549, in the assay on SNB-19, with HOP-62 and in the assay with NCI-H460 was > 100 µM (inactive) throughout. Further, the GI50 with UACC-257, with SF-539, in the assay with Malme-3M, in the assay with SN12C, in the assay with A498 and with OVCAR-8 was > 100 µM (inactive) in each case. The GI50 is > 100 µM (inactive) in the assay on MOLT-4; > 100 µM (inactive) in the assay with IGROV-1; 20.3 µM (inactive) with NCI-H226; > 100 µM (inactive) in the assay with MDA-MB-435; > 100 µM (inactive) in the assay on U-251; > 100 µM in the assay on HCT-15. For the same molecule, the GI50 with TK-10 is > 100 µM (inactive).
For `COc1cc(/C=C/C2=NN(c3cccc(S(=O)(=O)O)c3)C3(C2)C(Cl)C(=O)N3c2nc3ccccc3s2)ccc1O` (stereo unspecified), the GI50 in the assay on HT-29 was 20.7 µM (inactive); with PC-3, 25.6 µM (inactive); with UO-31, 16.9 µM (inactive); with A549, 31 µM (inactive); in the assay with SNB-19 it was 65.9 µM (inactive); with NCI-H460, 32.7 µM (inactive). Besides, the GI50 in the assay with UACC-257 is 19.9 µM (inactive); with SF-539, 21.4 µM (inactive); in the assay with Malme-3M, 19.7 µM (inactive); in the assay with SN12C, 21.9 µM (inactive); with A498 it was 55.6 µM (inactive); in the assay on OVCAR-8, 18.3 µM (inactive). In addition, the GI50 in the assay with MOLT-4 is 19.2 µM (inactive); with IGROV-1 it was 13.7 µM (inactive); in the assay with NCI-H226, 20.7 µM (inactive); in the assay with MDA-MB-435, 17.1 µM (inactive); in the assay on U-251, 18 µM (inactive); in the assay with HCT-15 it was 16.7 µM. Also, in the assay on TK-10, the GI50 is 14.8 µM (inactive).
Turning to `c1cncc(CC2(c3cc4ccccc4[nH]3)OCCO2)c1`, the GI50 was > 100 µM (inactive) in the assay on HT-29; > 100 µM (inactive) in the assay with PC-3; 40.6 µM (inactive) in the assay on UO-31; 81.8 µM (inactive) in the assay on A549; > 100 µM (inactive) in the assay on SNB-19; > 100 µM (inactive) in the assay with NCI-H460. The GI50 in the assay on UACC-257 was 66.5 µM (inactive); in the assay on SF-539, 58.3 µM (inactive); in the assay with Malme-3M, > 100 µM (inactive); in the assay on SN12C it was > 100 µM (inactive); in the assay with A498, > 100 µM (inactive); in the assay with OVCAR-8, > 100 µM (inactive). For the same molecule, the GI50 in the assay on IGROV-1 is 22.1 µM (inactive); in the assay with NCI-H226, > 100 µM (inactive); in the assay on MDA-MB-435, > 100 µM (inactive); with U-251, > 100 µM (inactive); in the assay with HCT-15, > 100 µM; in the assay on TK-10, > 100 µM (inactive).
With `C=CCNC(=O)/C(Cc1cc(Br)c(OC)c(Br)c1O)=N\O`, the GI50 was 15 µM (inactive) in the assay on HT-29; 6.46 µM (inactive) in the assay with PC-3; 3.49 µM (inactive) in the assay on UO-31; 6.68 µM (inactive) in the assay with A549; 4.41 µM (inactive) with SNB-19; 2.79 µM (inactive) with HOP-62. For the same molecule, the GI50 in the assay on NCI-H460 is 3.84 µM (inactive); in the assay on UACC-257, 6.15 µM (inactive); in the assay with SF-539, 3.6 µM (inactive); with Malme-3M, 1.34 µM (inactive); in the assay on A498, 10.1 µM (inactive); with OVCAR-8 it was 4.65 µM (inactive). Besides, the GI50 in the assay on MOLT-4 was 4.76 µM (inactive); with IGROV-1, 4.57 µM (inactive); in the assay on NCI-H226, 2.59 µM (inactive); in the assay with MDA-MB-435, 0.515 µM (active); in the assay with U-251, 4.53 µM (inactive); with HCT-15, 2.57 µM. Further, the GI50 in the assay on TK-10 was 10.6 µM (inactive).
Consider `C(/C=N/N=C1NCCN1)=N\N=C1NCCN1`, for which the GI50 with HT-29, in the assay on PC-3, in the assay with UO-31, in the assay on A549, in the assay with SNB-19 and in the assay on HOP-62 was > 100 µM (inactive) throughout. Moreover, the GI50 in the assay on NCI-H460, in the assay on UACC-257, with SF-539, in the assay on Malme-3M, in the assay with A498 and in the assay with OVCAR-8 was > 100 µM (inactive) in each case. In addition, the GI50 was > 100 µM (inactive) with MOLT-4; > 100 µM (inactive) with IGROV-1; > 100 µM (inactive) in the assay on NCI-H226; > 100 µM (inactive) in the assay with MDA-MB-435; > 100 µM (inactive) in the assay with U-251; > 100 µM in the assay on HCT-15.
For `COc1cc2c(cc1OC)C(=O)N(c1ccc(O)cc1)C2`, the GI50 in the assay with HT-29, in the assay on PC-3, with A549, in the assay with SNB-19, in the assay on HOP-62 and in the assay on NCI-H460 was > 100 µM (inactive) in each case. Besides, the GI50 with UACC-257, with SF-539, in the assay on Malme-3M, in the assay on SN12C, in the assay with A498 and with OVCAR-8 was > 100 µM (inactive) each time. For the same molecule, the GI50 is > 100 µM (inactive) in the assay on MOLT-4; > 100 µM (inactive) with IGROV-1; > 100 µM (inactive) in the assay with NCI-H226; > 100 µM (inactive) in the assay on MDA-MB-435; > 100 µM (inactive) with U-251; > 100 µM in the assay with HCT-15. For the same molecule, in the assay with TK-10, the GI50 was > 100 µM (inactive).
Regarding `O=C1NC(=O)C(COCc2ccccc2)C2=C1SCCC2` (stereo unspecified), the GI50 in the assay with HT-29, with PC-3, with UO-31, in the assay on A549, in the assay with SNB-19 and with HOP-62 was > 100 µM (inactive) each time. The GI50 with NCI-H460, in the assay on UACC-257, in the assay with SF-539, with Malme-3M, with A498 and in the assay with OVCAR-8 was > 100 µM (inactive) in each case. Besides, the GI50 in the assay with MOLT-4 is > 100 µM (inactive); with IGROV-1, > 100 µM (inactive); with NCI-H226 it was > 100 µM (inactive); in the assay on MDA-MB-435 it was > 100 µM (inactive); in the assay on U-251, > 100 µM (inactive); with HCT-15 it was > 100 µM.
For `C/C(=N\O)c1cccc(Nc2nc3ccccc3c3occc23)c1`, the GI50 was 4.32 µM (inactive) in the assay on HT-29; 12.1 µM (inactive) in the assay on PC-3; 0.0303 µM (active) in the assay on UO-31; 7.33 µM (inactive) in the assay on A549; 16.9 µM (inactive) in the assay on SNB-19; 18.3 µM (inactive) in the assay with HOP-62. The GI50 in the assay on NCI-H460 was 4.35 µM (inactive); in the assay on UACC-257, < 0.01 µM (active); with SF-539 it was 15.5 µM (inactive); in the assay with Malme-3M it was 14.4 µM (inactive); in the assay on SN12C it was 15.5 µM (inactive); in the assay on A498 it was 14.8 µM (inactive). The GI50 in the assay on OVCAR-8 is 16.6 µM (inactive); in the assay with MOLT-4, 5.96 µM (inactive); with NCI-H226, 1.72 µM (inactive); in the assay on MDA-MB-435, 10.1 µM (inactive); with U-251, 19.4 µM (inactive); in the assay with HCT-15, 7.94 µM. Besides, in the assay on TK-10, the GI50 was 13 µM (inactive).
As to `CC12OC1(C)C1C(=O)OCC1C2=O` (stereo unspecified), the GI50 with HT-29 was 49.7 µM (inactive); in the assay with PC-3 it was 52.8 µM (inactive); in the assay with UO-31, > 100 µM (inactive); in the assay with A549 it was > 100 µM (inactive); in the assay on SNB-19, 61.1 µM (inactive); in the assay on HOP-62 it was 41 µM (inactive). Moreover, the GI50 with NCI-H460 was > 100 µM (inactive); in the assay on UACC-257, > 100 µM (inactive); in the assay with SF-539, 32.5 µM (inactive); in the assay on Malme-3M, 17.6 µM (inactive); in the assay on SN12C, 26.7 µM (inactive); in the assay with A498, > 100 µM (inactive). Further, the GI50 in the assay with OVCAR-8 was 49.9 µM (inactive); in the assay on IGROV-1, 32.4 µM (inactive); in the assay with NCI-H226, 45.9 µM (inactive); in the assay on MDA-MB-435, > 100 µM (inactive); in the assay on U-251, > 100 µM (inactive); in the assay with HCT-15, 55 µM. Further, the GI50 with TK-10 is > 100 µM (inactive).
As to `O=C(O)[C@@H]1CSCN1C(=O)[C@@H]1CCC(=S)N1`, the GI50 in the assay with HT-29, in the assay on PC-3, with UO-31, with A549, with SNB-19 and in the assay on HOP-62 was > 100 µM (inactive) each time. In addition, the GI50 in the assay with NCI-H460, in the assay on UACC-257, with SF-539, in the assay with Malme-3M, in the assay with SN12C and with A498 was > 100 µM (inactive) throughout. Further, the GI50 was > 100 µM (inactive) with OVCAR-8; > 100 µM (inactive) in the assay on MOLT-4; > 100 µM (inactive) in the assay on IGROV-1; > 100 µM (inactive) in the assay with NCI-H226; > 100 µM (inactive) in the assay on MDA-MB-435; > 100 µM with HCT-15. Besides, the GI50 with TK-10 is > 100 µM (inactive).
